# Columns and labels:
# [1] = molecular target: T1, PARP-1 (Homo sapiens, UniProt P09874); test: PARP-1 enzyme kinetics assay (LC-HPLC of nicotinamide formation); type: biochemical; settings: 250 nM PARP-1, 10-500 μM analog; data not shown
# T1 construct: His10; made in house; host or cells: E. coli BL21(DE3) (inferred)
# Experimental: (§1) The enzyme kinetics of wild-type and analog-sensitive mutants of human PARP-1 were determined essentially as previously described (Jiang et al., 2010). Purified PARP-1 proteins were incubated for 5 minutes in PARP Enzyme Kinetics Buffer (50 mM Tris.HCl, pH 7.9, 4 mM MgCl2) containing 0.5 mg/mL sonicated salmon sperm DNA (Stratagene) at 25° C. with 10, 20, 30, 50, 100, 250, and 500 μM NAD^+ or 8-Bu(3-yne)T-NAD^+. The concentrations of the purified PARP-1 proteins were (1) 25 nM for PARP-1 with NAD^+, (2) 50 nM for PARP-1(L877A) with NAD^+, and […] 250 nM for PARP-1 and PARP-1(L877A) with 8-bu(3-yne)T-NAD^+. The reactions were brought to 450 mM perchloric acid (HClO4) to stop them, incubated for 5 minutes on ice, and then brought to […] potassium carbonate (K2CO3) to quench them. The quenched reactions were centrifuged at maximum speed in a microcentrifuge at 4° C., and the supernatant containing small molecules from the automodification reaction was collected.
# (§2) The supernatants from the extracted ADP-ribosylation reactions were analyzed using a Shimadzu LCMS-QP8000α with a Phenomenex Kinetex C18 column (150×4.6 mm, 5 μm XB-C18 100A) monitored at 260 nm. […] Quantitative values for the small molecules and metabolites were obtained by comparison to a standard curve. […]
# [2] = molecular target: T2, PARP-1 (L877A) (Homo sapiens, UniProt P09874, L877A); test: as above; type: biochemical; settings: 250 nM PARP-1(L877A), 10-500 μM analog, 25° C., 5 minutes
# T2 construct: His10; made in house; host or cells: E. coli BL21(DE3) (inferred)
# T2 sequence (P09874 whole entry L877A): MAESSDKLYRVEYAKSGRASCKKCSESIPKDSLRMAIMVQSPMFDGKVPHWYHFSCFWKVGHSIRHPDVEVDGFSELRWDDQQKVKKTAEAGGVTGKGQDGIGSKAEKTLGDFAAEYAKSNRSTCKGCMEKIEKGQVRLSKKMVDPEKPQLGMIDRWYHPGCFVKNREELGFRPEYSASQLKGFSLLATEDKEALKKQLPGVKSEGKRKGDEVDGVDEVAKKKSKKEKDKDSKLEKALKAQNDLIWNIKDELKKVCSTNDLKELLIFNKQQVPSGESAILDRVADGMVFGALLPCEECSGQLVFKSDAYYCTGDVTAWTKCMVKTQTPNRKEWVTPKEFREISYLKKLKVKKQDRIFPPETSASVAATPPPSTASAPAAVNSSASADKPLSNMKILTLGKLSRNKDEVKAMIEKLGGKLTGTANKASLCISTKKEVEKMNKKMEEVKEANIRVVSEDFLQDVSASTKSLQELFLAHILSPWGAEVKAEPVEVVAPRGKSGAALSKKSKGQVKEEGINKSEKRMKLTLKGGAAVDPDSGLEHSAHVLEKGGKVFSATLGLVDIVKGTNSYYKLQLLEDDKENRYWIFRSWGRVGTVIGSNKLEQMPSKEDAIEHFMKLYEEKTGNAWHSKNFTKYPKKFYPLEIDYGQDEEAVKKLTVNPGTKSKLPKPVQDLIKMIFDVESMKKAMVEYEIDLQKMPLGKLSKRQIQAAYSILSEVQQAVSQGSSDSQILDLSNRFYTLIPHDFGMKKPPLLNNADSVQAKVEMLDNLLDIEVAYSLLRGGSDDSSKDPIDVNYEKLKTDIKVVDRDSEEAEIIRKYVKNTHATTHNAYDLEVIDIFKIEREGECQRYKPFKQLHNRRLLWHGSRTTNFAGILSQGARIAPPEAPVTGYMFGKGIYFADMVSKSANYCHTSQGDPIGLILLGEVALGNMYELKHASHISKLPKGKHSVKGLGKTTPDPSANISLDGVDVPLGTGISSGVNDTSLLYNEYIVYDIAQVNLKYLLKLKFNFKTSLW
# Experimental: as §1, §2
# T1 sequence (P09874 whole entry): as the sequence (P09874 whole entry L877A) above, with A877L counted along it
smiles,measurement,setting,value
C#CCCSc1nc2c(N)ncnc2n1[C@@H]1O[C@H](COP(=O)(O)OP(=O)(O)OC[C@H]2O[C@@H]([n+]3cccc(C(N)=O)c3)C(O)C2O)[C@H](O)C1O (some centres unmarked) [8-Bu(3-yne)T-NAD^+],saturation of PARylation activity,[1],No saturation was detectable
same,enzyme kinetics compared to PARP-1 and NAD+,[2],nearing wild-type enzyme kinetics
